± gives the standard deviation of the averaged measurements.
How the values were obtained:
Test in all cases: level (log10 ratio to DMSO vehicle control); higher = higher biomarker level / cell amount than vehicle control
[1] = compound: O=S(=O)(O)C(F)(F)C(F)(F)C(F)(F)C(F)(F)C(F)(F)C(F)(F)C(F)(F)C(F)(F)C(F)(F)C(F)(F)F [Sodium perfluorodecanesulfonate]; settings: in DMSO
Procedure: (§1)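 BioMAP Diversity Plus panel of 12 human primary cell co-culture systems (3C, 4H, LPS, SAg, BT, BF4T, BE3C, CASM3C, HDF3CGF, KF3CT, MyoF, Mphg). Compounds were added 1 h before stimulation and left for 24 h (MyoF 48 h; BT 72 h for soluble read-outs or 6 d for IgG). Biomarkers were read by ELISA, cytotoxicity by SRB, PBMC viability and proliferation by Alamar Blue. Each well value was divided by the mean of 8 DMSO control wells on the same plate and log10 transformed; duplicate blinded samples were tested at 4 concentrations.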

[2] = compound: FC(F)(F)C(F)(F)C(F)(F)CC1CO1 [1H,1H-Heptafluorobutyl epoxide]; settings: in DMSO
Procedure: as §1

[3] = compound: O=C(O)C=CC(F)(C(F)(F)F)C(F)(F)F [3-(Perfluoroisopropyl)-2-propenoic acid]; settings: in DMSO
Procedure: as §1

Heptafluorobutyl iodide = compound: FC(F)(F)C(F)(F)C(F)(F)CI [Heptafluorobutyl iodide]; settings: in DMSO
Procedure: as §1

[4] = compound: O=C(O)C(F)(F)C(F)(F)C(F)(F)C(F)(F)C(F)(F)C(F)(F)C(F)(F)C(F)(F)C(F)(F)C(F)F [11-H-Perfluoroundecanoic acid]; settings: in DMSO
Procedure: as §1

[5] = compound: O=S(=O)(O)CCC(F)(F)C(F)(F)C(F)(F)C(F)(F)C(F)(F)C(F)(F)F [6:2 Fluorotelomer sulfonic acid]; settings: in DMSO
Procedure: as §1

[6] = compound: C=C(C)C(=O)OCCC(F)(F)C(F)(F)C(F)(F)C(F)(F)C(F)(F)C(F)(F)F [6:2 Fluorotelomer methacrylate]; settings: in DMSO
Procedure: as §1

Hexafluoroamylene glycol = compound: OCC(F)(F)C(F)(F)C(F)(F)CO [Hexafluoroamylene glycol]; settings: in DMSO
Procedure: as §1

[7] = compound: O=S(=O)(Cl)C(F)(F)C(F)(F)C(F)(F)C(F)(F)C(F)(F)C(F)(F)C(F)(F)C(F)(F)F [Perfluoro-1-octanesulfonyl chloride]; settings: in DMSO
Procedure: as §1

Octafluoroadipamide = compound: NC(=O)C(F)(F)C(F)(F)C(F)(F)C(F)(F)C(N)=O [Octafluoroadipamide]; settings: in DMSO
Procedure: as §1

[8] = compound: C=CC(=O)OCC(F)(F)C(F)(F)C(F)(F)COC(=O)C=C [1H,1H,5H,5H-Perfluoro-1,5-pentanediol diacrylate]; settings: 6700 nM; in DMSO
Procedure: as §1

[9] = compound: NS(=O)(=O)C(F)(F)C(F)(F)C(F)(F)C(F)(F)C(F)(F)C(F)(F)F [Perfluorohexanesulfonamide]; settings: in DMSO
Procedure: as §1

[10] = compound: FC(F)(F)C(F)(F)C(F)(F)C(F)(F)C(F)(F)C(F)(F)CC1CO1 [3-(Perfluorohexyl)-1,2-epoxypropane]; settings: in DMSO
Procedure: as §1

Nonafluoropentanamide = compound: NC(=O)C(F)(F)C(F)(F)C(F)(F)C(F)(F)F [Nonafluoropentanamide]; settings: in DMSO
Procedure: as §1

[11] = compound: O=S(=O)(F)C(F)(F)C(F)(F)C(F)(F)C(F)(F)C(F)(F)C(F)(F)C(F)(F)C(F)(F)F [Perfluorooctanesulfonyl fluoride]; settings: in DMSO
Procedure: as §1

[12] = compound: COC(=O)C(F)(F)C(F)(F)OC(F)(C(F)(F)F)C(F)(F)OC(F)=C(F)F [Methyl perfluoro(3-(1-ethenyloxypropan-2-yloxy)propanoate)]; settings: in DMSO
Procedure: as §1

[13] = compound: NC(=O)C(F)(F)C(F)(F)C(F)(F)C(F)F; settings: in DMSO
Procedure: as §1

[14] = compound: FC(F)(F)C(F)(F)CNCC(F)(F)C(F)(F)F [Bis(1H,1H-perfluoropropyl)amine]; settings: in DMSO
Procedure: as §1

[15] = compound: FC(F)(F)C(F)(F)C(F)(F)C(F)(F)C(F)(F)C(F)(F)C(F)(F)I [1-Iodopentadecafluoroheptane]; settings: in DMSO
Procedure: as §1

HDF3CGF:CXCL10/IP-10
level (log10) ([1]; 1500 nM): -0.001 ± 0.027 | level (log10) ([1]; 4400 nM): -0.065 ± 0.0042 | level (log10) ([1]; 13000 nM): -0.025 ± 0.02 | level (log10) ([1]; 40000 nM): 0.012 | level (log10) ([2]; 6700 nM): -0.0275 ± 0.0078 | level (log10) ([2]; 20000 nM): -0.0285 ± 0.053 | level (log10) ([2]; 60000 nM): -0.054 ± 0.054 | level (log10) ([3]; 6700 nM): -0.007 ± 0.034 | level (log10) ([3]; 20000 nM): 0.0025 ± 0.035 | level (log10) ([3]; 60000 nM): -0.001 ± 0.027 | level (log10) (Heptafluorobutyl iodide; 6700 nM): 0.0035 ± 0.012 | level (log10) (Heptafluorobutyl iodide; 20000 nM): -0.007 ± 0.011 | level (log10) (Heptafluorobutyl iodide; 60000 nM): -0.017 ± 0.014 | level (log10) ([4]; 6700 nM): -0.117 ± 0.011 | level (log10) ([4]; 20000 nM): -0.331 ± 0.0071 | level (log10) ([5]; 6700 nM): -0.0075 ± 0.018 | level (log10) ([5]; 20000 nM): -0.046 ± 0.021 | level (log10) ([5]; 60000 nM): -0.0325 ± 0.042 | level (log10) ([6]; 6700 nM): -0.0075 ± 0.016 | level (log10) ([6]; 20000 nM): -0.019 ± 0.021 | level (log10) ([6]; 60000 nM): -0.0225 ± 0.026 | level (log10) (Hexafluoroamylene glycol; 6700 nM): -0.009 | level (log10) (Hexafluoroamylene glycol; 20000 nM): -0.0135 ± 0.029 | level (log10) (Hexafluoroamylene glycol; 60000 nM): -0.028 ± 0.051 | level (log10) ([7]; 6700 nM): -0.0115 ± 0.0021 | level (log10) ([7]; 20000 nM): -0.046 ± 0.021 | level (log10) ([7]; 60000 nM): -0.0365 ± 0.018 | level (log10) (Octafluoroadipamide; 6700 nM): 0.011 ± 0.0028 | level (log10) (Octafluoroadipamide; 20000 nM): -0.0045 ± 0.016 | level (log10) (Octafluoroadipamide; 60000 nM): 0.031 ± 0.03 | level (log10) [8]: -0.821 ± 0.0057 | level (log10) ([9]; 6700 nM): -0.02 ± 0.037 | level (log10) ([9]; 20000 nM): -0.059 ± 0.037 | level (log10) ([9]; 60000 nM): -0.185 ± 0.069 | level (log10) ([10]; 6700 nM): 0.005 ± 0.031 | level (log10) ([10]; 20000 nM): 0.012 ± 0.034 | level (log10) ([10]; 60000 nM): -0.0095 ± 0.037 | level (log10) (Nonafluoropentanamide; 6700 nM): -0.012 ± 0.0014 | level (log10) (Nonafluoropentanamide; 20000 nM): -0.0055 ± 0.00071 | level (log10) (Nonafluoropentanamide; 60000 nM): -0.004 ± 0.0014 | level (log10) ([11]; 6700 nM): -0.0005 ± 0.0021 | level (log10) ([11]; 20000 nM): -0.015 ± 0.011 | level (log10) ([11]; 60000 nM): -0.012 ± 0.014 | level (log10) ([12]; 6700 nM): -0.018 ± 0.062 | level (log10) ([12]; 20000 nM): -0.203 ± 0.03 | level (log10) ([13]; 6700 nM): -0.001 ± 0.0014 | level (log10) ([13]; 20000 nM): -0.0065 ± 0.0021 | level (log10) ([13]; 60000 nM): 0.002 ± 0.011 | level (log10) ([14]; 6700 nM): 0.011 ± 0.011 | level (log10) ([14]; 20000 nM): -0.001 ± 0.0042 | level (log10) ([14]; 60000 nM): 0.0265 ± 0.025 | level (log10) ([15]; 6700 nM): 0.0025 ± 0.0021 | level (log10) ([15]; 20000 nM): -0.026 ± 0.0071

Source: the supplement of paper PMC10331698
